# Assay results published in patent US11361527B2, “Automated robotic microscopy systems” (The J. David Gladstone Institutes, a testamentary trust …, priority 2012, dated 2022).
# System: primary neurons transfected with TDP43 M337V
# Test: Automated neurite quantification in primary neurons transfected with TDP43 M337V (ALS disease model), robotic microscope
# Assay type: cell-based
# Details: fluphenazine 0.1 μM vs vehicle, images every 24 hours, FIG. 24
# Procedure: Primary neurons were transfected with GFP as a control or TDP43 M337V. The disease model neurons were treated with fluphenazine (0.1 μM) or vehicle to determine whether autophagy could rescue TDP43 M337V mediated loss of neurites. Images were collected every 24 hours with the robotic microscope and neurites were quantified using automated analysis as described herein.
# Further, counting the number of neurites in neuronal cultures can be an early and sensitive measure of cell health. Neurite retraction often precedes neuron death when cells are coping with neurodegenerative disease causing proteins. One way to detect neurites with low computational complexity is to quantify the total area of neurites in an image. A line detector may be used to identify pixels in an image that have local structures that represent a line. The determination is based on the second order pixel data (Hessian matrix), which is a measure of local intensity curvature. In certain aspects, such an approach uses the following parameters:
# The output of the line detector is a binary image with pixels that are part of lines having a value of 1 and all other pixels having a value of 0. The pixels of this binary image are then summed to quantify the total area of neurites. […] Images were collected every 24 hours with the robotic microscope and neurites were quantified using automated analysis as described above.
compound,measurement,value
OCCN1CCN(CCCN2c3ccccc3Sc3ccc(C(F)(F)F)cc32)CC1 [fluphenazine],"neurite degeneration induced by TDP43 M337V (loss of neurites, automated neurite quantification)",mitigates neurite degeneration
